Experimental data published in patent US6096874A (Board of Regents, the University of Texas System, priority 1995, dated 2000).
“Also recorded” adds a separate entry of the source.

Legend:
[1] = test system: MCF-7 human breast cancer cells; experiment: MCF-7 human breast cancer xenograft growth in nude mice; format: in vivo, mouse; conditions: 50 μg daily s.c.
Text: The cultures were free of mycoplasma and pathogenic murine viruses (assayed by Microbiological Associates, Bethesda, Md.). Female athymic NCr-nu/nu mice were obtained from the NCI-Frederick Cancer Research Facility (Frederick, Md.). The mice were maintained in specific-pathogen-free conditions in a facility approved by the American Association for Accreditation of Laboratory Animal Care. […] A 60-day release pellet containing […] 17-β estradiol (Innovative Research of America, Toledo, Ohio) was implanted s.c. in each animal. After 20 days the 17β estradiol […] removed from one group, and these mice were not treated further.

breast cancer [2] = experiment: Response of PET-imaged patients to tamoxifen treatment; format: in vivo, human
breast cancer [3] = conditions: unselected patients with breast cancer; cited from earlier work
[4] = Acute/immediate toxicity following i.v. injection in BALB/c mice; conditions: mouse, in vivo, iv
Experimental: Acute toxicity studies were performed in BALB/c female mice with doses tested at 20, 50 and 200 mg/kg (i.v., n=5 mice per dose).

CC/C(=C(\c1ccccc1)c1ccc(OCCN(C)C)cc1)c1ccccc1 [Compound I, Tamoxifen]
ER(+) MCF-7 tumor growth (in words) [1]: reduced ER(+) breast tumor growth; also recorded: growth of the MCF-7 tumors was greatly reduced | Response of TX treat. (breast cancer [2]; patient 1): poor | Response of TX treat. (breast cancer [2]; patient 2): poor | Response of TX treat. (breast cancer [2]; patient 3): good | Response of TX treat. (breast cancer [2]; patient 4): poor | Response of TX treat. (breast cancer [2]; patient 5): good | Response of TX treat. (breast cancer [2]; patient 7): poor | Response of TX treat. (breast cancer [2]; patient 9): poor | Response of TX treat. (breast cancer [2]; patient 10): good | Response to tamoxifen therapy (in words) (breast cancer [2]; three patients with tumor uptake): positive response to tamoxifen therapy | Positive therapy results (breast cancer [3]): 30%

CCN(CC)CCOc1ccc(C(=C(CCCI)c2ccccc2)c2ccccc2)cc1 [iodotamoxifen]
MTD [4]: 50 mg/kg | ER(+) MCF-7 tumor growth (in words) [1]: reduced ER(+) breast tumor growth; also recorded: growth of the MCF-7 tumors was greatly reduced
